Laboratory results from PubChem BioAssay (NCI).
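Here, GI50 denotes the concentration required for 50% inhibition of growth. TGI marks complete inhibition of growth.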

What was measured:
Assay in all cases: NCI-60 cell line screen, 384-well format
PC-3 prostate = test system: PC-3 prostate
COLO 205 colon = test system: COLO 205 colon
HS 578T breast = test system: HS 578T breast
OVCAR-4 ovarian = test system: OVCAR-4 ovarian
UACC-257 melanoma = test system: UACC-257 melanoma
HCC-2998 colon = test system: HCC-2998 colon
IGROV1 ovarian = test system: IGROV1 ovarian
M14 melanoma = test system: M14 melanoma
NCI-H23 lung = test system: NCI-H23 lung
SW-620 colon = test system: SW-620 colon
MDA-MB-468 breast = test system: MDA-MB-468 breast
SK-MEL-2 melanoma = test system: SK-MEL-2 melanoma
HL-60(TB) leukemia = test system: HL-60(TB) leukemia
NCI-H460 NSCLC = test system: NCI-H460 NSCLC
OVCAR-8 ovarian = test system: OVCAR-8 ovarian
NCI/ADR-RES ovarian = test system: NCI/ADR-RES ovarian
U251 glioblastoma = test system: U251 glioblastoma
HCT-15 colon = test system: HCT-15 colon
NCI-H226 lung = test system: NCI-H226 lung
BT-549 breast = test system: BT-549 breast
SK-OV-3 ovarian = test system: SK-OV-3 ovarian
TK-10 renal = test system: TK-10 renal
A498 renal = test system: A498 renal
MALME-3M melanoma = test system: MALME-3M melanoma
MDA-MB-231 breast = test system: MDA-MB-231 breast
SK-MEL-5 melanoma = test system: SK-MEL-5 melanoma
OVCAR-5 ovarian = test system: OVCAR-5 ovarian
OVCAR-3 ovarian = test system: OVCAR-3 ovarian
SF-539 CNS = test system: SF-539 CNS
CCRF-CEM leukemia = test system: CCRF-CEM leukemia
SF-268 CNS = test system: SF-268 CNS
MCF7 breast = test system: MCF7 breast
MDA-MB-435 melanoma = test system: MDA-MB-435 melanoma
SK-MEL-28 melanoma = test system: SK-MEL-28 melanoma
SR leukemia = test system: SR leukemia
ACHN renal = test system: ACHN renal
HT29 colon = test system: HT29 colon
DU-145 prostate = test system: DU-145 prostate
HOP-92 NSCLC = test system: HOP-92 NSCLC
HOP-62 NSCLC = test system: HOP-62 NSCLC
NCI-H522 lung = test system: NCI-H522 lung
CAKI-1 renal = test system: CAKI-1 renal
RPMI-8226 leukemia = test system: RPMI-8226 leukemia
SN12C renal = test system: SN12C renal
EKVX NSCLC = test system: EKVX NSCLC
KM12 colon = test system: KM12 colon
RXF 393 renal = test system: RXF 393 renal
T-47D breast = test system: T-47D breast
SNB-75 CNS = test system: SNB-75 CNS
MOLT-4 leukemia = test system: MOLT-4 leukemia
NCI-H322M lung = test system: NCI-H322M lung
UACC-62 melanoma = test system: UACC-62 melanoma
SNB-19 CNS = test system: SNB-19 CNS

SMILES: COc1ccc(N(C)c2nc(C)nc3ccccc23)cc1
- GI50 (PC-3 prostate): < 10 nM
- TGI (PC-3 prostate): < 10 nM
- GI50 (COLO 205 colon): < 10 nM
- TGI (COLO 205 colon): < 10 nM
- GI50 (HS 578T breast): < 10 nM
- TGI (HS 578T breast): < 10 nM
- GI50 (OVCAR-4 ovarian): < 10 nM
- TGI (OVCAR-4 ovarian): 2080 nM
- GI50 (UACC-257 melanoma): < 10 nM
- TGI (UACC-257 melanoma): 75500 nM
- GI50 (HCC-2998 colon): < 10 nM
- TGI (HCC-2998 colon): < 10 nM
- GI50 (IGROV1 ovarian): < 10 nM
- TGI (IGROV1 ovarian): > 100000 nM
- GI50 (M14 melanoma): < 10 nM
- TGI (M14 melanoma): < 10 nM
- GI50 (NCI-H23 lung): < 10 nM
- TGI (NCI-H23 lung): < 10 nM
- GI50 (SW-620 colon): < 10 nM
- TGI (SW-620 colon): > 100000 nM
- GI50 (MDA-MB-468 breast): < 10 nM
- TGI (MDA-MB-468 breast): < 10 nM
- GI50 (SK-MEL-2 melanoma): < 10 nM
- TGI (SK-MEL-2 melanoma): < 10 nM
- GI50 (HL-60(TB) leukemia): < 10 nM
- TGI (HL-60(TB) leukemia): < 10 nM
- GI50 (NCI-H460 NSCLC): < 10 nM
- TGI (NCI-H460 NSCLC): < 10 nM
- GI50 (OVCAR-8 ovarian): < 10 nM
- TGI (OVCAR-8 ovarian): < 10 nM
- GI50 (NCI/ADR-RES ovarian): < 10 nM
- TGI (NCI/ADR-RES ovarian): < 10 nM
- GI50 (U251 glioblastoma): < 10 nM
- TGI (U251 glioblastoma): < 10 nM
- GI50 (HCT-15 colon): < 10 nM
- TGI (HCT-15 colon): < 10 nM
- GI50 (NCI-H226 lung): < 10 nM
- TGI (NCI-H226 lung): < 10 nM
- GI50 (BT-549 breast): < 10 nM
- TGI (BT-549 breast): < 10 nM
- GI50 (SK-OV-3 ovarian): < 10 nM
- TGI (SK-OV-3 ovarian): < 10 nM
- GI50 (TK-10 renal): < 10 nM
- TGI (TK-10 renal): 90300 nM
- GI50 (A498 renal): < 10 nM
- TGI (A498 renal): 35400 nM
- GI50 (MALME-3M melanoma): < 10 nM
- TGI (MALME-3M melanoma): < 10 nM
- GI50 (MDA-MB-231 breast): < 10 nM
- TGI (MDA-MB-231 breast): 23900 nM
- GI50 (SK-MEL-5 melanoma): < 10 nM
- TGI (SK-MEL-5 melanoma): < 10 nM
- GI50 (OVCAR-5 ovarian): < 10 nM
- TGI (OVCAR-5 ovarian): > 100000 nM
- GI50 (OVCAR-3 ovarian): < 10 nM
- TGI (OVCAR-3 ovarian): < 10 nM
- GI50 (SF-539 CNS): < 10 nM
- TGI (SF-539 CNS): < 10 nM
- GI50 (CCRF-CEM leukemia): < 10 nM
- TGI (CCRF-CEM leukemia): < 10 nM
- GI50 (SF-268 CNS): < 10 nM
- TGI (SF-268 CNS): < 10 nM
- GI50 (MCF7 breast): < 10 nM
- TGI (MCF7 breast): 184 nM
- GI50 (MDA-MB-435 melanoma): < 10 nM
- TGI (MDA-MB-435 melanoma): < 10 nM
- GI50 (SK-MEL-28 melanoma): < 10 nM
- TGI (SK-MEL-28 melanoma): < 10 nM
- GI50 (SR leukemia): < 10 nM
- TGI (SR leukemia): < 10 nM
- GI50 (ACHN renal): < 10 nM
- TGI (ACHN renal): 11400 nM
- GI50 (HT29 colon): < 10 nM
- TGI (HT29 colon): 13000 nM
- GI50 (DU-145 prostate): < 10 nM
- TGI (DU-145 prostate): 32.8 nM
- GI50 (HOP-92 NSCLC): < 10 nM
- TGI (HOP-92 NSCLC): 13.1 nM
- GI50 (HOP-62 NSCLC): < 10 nM
- TGI (HOP-62 NSCLC): 5640 nM
- GI50 (NCI-H522 lung): < 10 nM
- TGI (NCI-H522 lung): < 10 nM
- GI50 (CAKI-1 renal): < 10 nM
- TGI (CAKI-1 renal): 288 nM
- GI50 (RPMI-8226 leukemia): < 10 nM
- TGI (RPMI-8226 leukemia): < 10 nM
- GI50 (SN12C renal): < 10 nM
- TGI (SN12C renal): 46000 nM
- GI50 (EKVX NSCLC): < 10 nM
- TGI (EKVX NSCLC): 25100 nM
- GI50 (KM12 colon): < 10 nM
- TGI (KM12 colon): 38400 nM
- GI50 (RXF 393 renal): < 10 nM
- TGI (RXF 393 renal): < 10 nM
- GI50 (T-47D breast): < 10 nM
- TGI (T-47D breast): 55700 nM
- GI50 (SNB-75 CNS): < 10 nM
- TGI (SNB-75 CNS): < 10 nM
- GI50 (MOLT-4 leukemia): < 10 nM
- TGI (MOLT-4 leukemia): < 10 nM
- GI50 (NCI-H322M lung): < 10 nM
- TGI (NCI-H322M lung): > 100000 nM
- GI50 (UACC-62 melanoma): < 10 nM
- TGI (UACC-62 melanoma): < 10 nM
- GI50 (SNB-19 CNS): < 10 nM
- TGI (SNB-19 CNS): < 10 nM
